Square brackets hold non-standard residues; d marks the D form. Peptide text beside a SMILES is read from it. Ava = NCCCCC(=O)O
Assays:
[1] = system: HIV-1 89.6 subtype B dualtropic (X4R5); conditions: PBMC, Table 5
[2] = system: HIV-1 NL 4-3; assay: Infection of human peripheral blood lymphocytes (PBL) with NL 4-3 strain, p24 ELISA; format: cell-based
Description: Peripheral blood lymphocytes from an HIV-1 negative donor were grown as described earlier, maintained in RPMI 1640 with ultraglutamine, supplemented with IL2 (20 μg/ml), penicillin (100 U/ml), streptomycin (100 μg/ml), and 10% heat-inactivated fetal calf serum. Cells were stimulated three days in the medium supplemented with phytohemagglutinin (20 U/ml PHA P, DIFCO, Detroit Mich.).
Samples of 10^6/100 μL PBL cells were preincubated in 96-well microtiter plates in culture medium containing various concentrations of peptides. After a 1 h treatment at 37° C., 100 μl of diluted viral solution of HIV-1 was added. The cells were exposed to the virus for 1 h at 37° C. at a multiplicity of infection of 1000 TCID50 per ml. The cells were washed three times and cultured at […] of medium with the treatment in 24-well plates incubated at 37° in culture medium with the peptides in 5% CO2. The treatment was permanent before virus adsorption, during virus adsorption and after infection. The PBL culture medium was replaced every 3-4 days during three weeks always in the presence of peptide. The cell viability was assessed by cell counts and trypan-blue exclusion assay. The viral production in the culture supernatant was quantified by p24 ELISA test, as described earlier. All the experiments have been done in blind-tests. Tests have been done in duplicate.

[3] = system: HIV-1 NL 4-3; assay: HIV-1 infection of C8166 cells (syncytia formation, p24 ELISA) with HIV-1 NL 4-3; format: cell-based; set-up: key: ++, +, (+), (+)− and − represent decreasing numbers of syncitia formed.; ++, +, (+), (+)− and − represent decreasing numbers of syncitia formed.; ++, +, (+), (+)− and − represent decreasing numbers of syncitia formed.; ++, +, (+), (+)− and − represent decreasing numbers of syncitia formed.; ++, +, (+), (+)− and − represent decreasing numbers of syncitia formed; conditions: Table 2
Description: HIV-1 NL 4-3 isolate (Adachi et al., 1986; Barré-Sinoussi et al., 1983) and highly cytopathic Zairian HIV-1 NDK isolate (Ellrodt et al., 1984) was propagated in permissive CEM cells (Nara et al., 1987). Uninfected CEM and C8166 (Salahuddin et al., 1983) were maintained in RPMI 1640 (R10) with ultraglutamine (cambrex, Vervier, Belgium), penicillin (100 U/ml), streptomycin (100 μg/ml), and 10% heat-inactivated fetal calf serum (Cambrex).
Samples of 3×10^5/100 μL C8166 cells were preincubated in 96-well microtiter plates in culture medium containing various concentrations of peptide. After a 1 h treatment at 37° C., 100 μl of diluted viral solution of HIV-1 was added. The cells were exposed to the virus for 1 h at 37° C. at a multiplicity of infection of 1000 TCID50 per ml. The cells were washed three times and cultured at 3×10^5/ml of R10 with the treatment in 24-well plates incubated at 37° C. C8166 culture medium was replaced at Day-4 post-infection. The treatment was permanent before virus adsorption, during virus adsorption and after infection. Assays on C8166 cells have been performed at least twice and in duplicate. Toxicity was evaluated by daily cell count and trypan-blue exclusion assay. Infection of C8166 T-cells with HIV-1 was assessed by virus-induced cytopathic effects (syncytia formation) and by quantification of cell free p24 viral protein in the culture supernatants. Measurements of HIV-1 p24^gag concentration in the culture supernatants were achieved by ELISA (ALLIANCE® HIV-1 p24 kit, Perkin Elmer, life sciences, USA).

Structure (SMILES) | IC50 [1] | IC100 [1] | IC50 ([2]; PBL, NL 4-3 strain, Table 4) | IC100 ([2]; PBL, NL 4-3 strain, Table 4) | IC100 ([2]; text b43 on PBL results) | Day 4 syncitia formed ([3]; 1 μM) | Day 5 syncitia formed ([3]; 1 μM) | Day 6 syncitia formed ([3]; 1 μM) | Day 7 syncitia formed ([3]; 1 μM) | Day 4 syncitia formed ([3]; 5 μM) | Day 5 syncitia formed ([3]; 5 μM) | Day 6 syncitia formed ([3]; 5 μM) | Day 7 syncitia formed ([3]; 5 μM) | IC100 ([2]; on PBL)
C[C@H](NC(=O)[C@H](CCCNC(=N)N)NC(=O)CNC(=O)[C@@H]1CCCN1C(=O)CN)C(=O)N[C@@H](Cc1ccccc1)C(=O)NCCCCC(=O)O [SPC3 monomer valeric acid, GPGRAF-NHCH2CH2CH2CH2COOH] (H-GPGRAF[Ava]-OH; N-terminus assumed) | 10 nM | 0.5 µM | 20 nM | 0.1 µM | 0.1 µM |  |  |  |  |  |  |  |  | 
C[C@H](NC(=O)[C@H](CCCNC(=N)N)NC(=O)CNC(=O)[C@@H]1CCCN1C(=O)CN)C(=O)N[C@@H](Cc1ccccc1)C(=O)NCCCC[C@H](NC(=O)[C@H](Cc1ccccc1)NC(=O)[C@H](C)NC(=O)[C@H](CCCNC(=N)N)NC(=O)CNC(=O)[C@@H]1CCCN1C(=O)CN)C(=O)NCCCC[C@H](NC(=O)[C@H](CCCCNC(=O)[C@H](Cc1ccccc1)NC(=O)[C@H](C)NC(=O)[C@H](CCCNC(=N)N)NC(=O)CNC(=O)[C@@H]1CCCN1C(=O)CN)NC(=O)[C@H](Cc1ccccc1)NC(=O)[C@H](C)NC(=O)[C@H](CCCNC(=N)N)NC(=O)CNC(=O)[C@@H]1CCCN1C(=O)CN)C(=O)NCCCC[C@H](NC(=O)[C@H](CCCCNC(=O)[C@H](CCCCNC(=O)[C@H](Cc1ccccc1)NC(=O)[C@H](C)NC(=O)[C@H](CCCNC(=N)N)NC(=O)CNC(=O)[C@@H]1CCCN1C(=O)CN)NC(=O)[C@H](Cc1ccccc1)NC(=O)[C@H](C)NC(=O)[C@H](CCCNC(=N)N)NC(=O)CNC(=O)[C@@H]1CCCN1C(=O)CN)NC(=O)[C@H](CCCCNC(=O)[C@H](Cc1ccccc1)NC(=O)[C@H](C)NC(=O)[C@H](CCCNC(=N)N)NC(=O)CNC(=O)[C@@H]1CCCN1C(=O)CN)NC(=O)[C@H](Cc1ccccc1)NC(=O)[C@H](C)NC(=O)[C@H](CCCNC(=N)N)NC(=O)CNC(=O)[C@@H]1CCCN1C(=O)CN)C(=O)NCCC(=O)O [SPC3, (GPGRAF)8-K4-K2-K-βA-OH, reference compound] | 60 nM | 0.5 µM | 10 nM | 0.1 µM | 2 µM | (+) | + | ++ | ++ | − | (+) | + | ++ | 2 µM
